# Like-named read-outs stand apart in the source and are kept apart here. Square brackets hold non-standard residues; d marks the D form. Peptide text beside a SMILES is read from it. * marks the point of attachment. ξ: configuration not given here. d(αMeF) = C[C@@](N)(Cc1ccccc1)C(=O)O; 2Pal = N[C@@H](Cc1ccccn1)C(=O)O; 2Thi = N[C@@H](Cc1cccs1)C(=O)O; d2Thi = N[C@H](Cc1cccs1)C(=O)O; Tle = CC(C)(C)[C@H](N)C(=O)O; ξαMeL = CC(C)CC(C)(N)C(=O)O; ξF = NC(Cc1ccccc1)C(=O)O; Cbz = O=C(OCc1ccccc1)*; Bn = c1ccc(C*)cc1; Ms = CS(=O)(=O)*
# What was measured:
# Type in all cases: biochemical
# cathepsin L = molecular target: T1, cathepsin L (Homo sapiens, UniProt P07711); test: Inhibition of cathepsin L; conditions: read-out: Cat L % I @ 1 uM
# T1 construct: purchased Calbiochem 219402
# Description: (§1) Additionally,the order of reagents added to the plate was altered because both enzymes are constitutively active. Following inhibitor addition to the plates, appropriate 2× concentrated stock dilutions of the enzyme preparations were made in assay buffer and 100 μl added to each well. The assay was initiated by addition of 100 μl of 2× concentrated stock dilution of substrate in assay buffer.
# thrombin = molecular target: T2, thrombin (Homo sapiens, UniProt P00734); test: Inhibition of thrombin; conditions: read-out: Thrombin % I @ 10 uM
# T2 construct: purchased Sigma Chem. Co. T-7009
# cathepsin B = molecular target: T3, cathepsin B (Homo sapiens, UniProt P07858); test: Inhibition of cathepsin B; conditions: for inhibition at 1 µM: read-out: Cat B % I @ 1 uM; for IC50: read-out: Cat B IC50
# T3 construct: purchased Calbiochem 219364
# Description: as §1
# α-chymotrypsin = molecular target: T4, α-chymotrypsin (Bos taurus, UniProt P00766); test: Inhibition of α-chymotrypsin; conditions: read-out: Chymotrypsin % I @ 10 uM
# T4 construct: purchased Sigma Chem. Co. C-3142
# Description: Additionally, because α-chymotrypsin is not a calcium sensitive enzyme and is constitutively active, following addition of inhibitor stocks to the 96 well plates, 100 μl of a 2-fold concentrated stock of enzyme in dilution buffer was first added and the reaction started by addition of 100 μl of a 2-fold concentrated stock of substrate in assay buffer. Substrate hydrolysis was monitored every 5 minutes up to 30 minutes using a Fluoroskan II ([…]).
# [1] = molecular target: T5, Recombinant human calpain I (Homo sapiens, UniProt P07384); test: Inhibition of calpain I activity; conditions: Table III
# T5 construct: made in house
# T5 sequence (P07384 1-714): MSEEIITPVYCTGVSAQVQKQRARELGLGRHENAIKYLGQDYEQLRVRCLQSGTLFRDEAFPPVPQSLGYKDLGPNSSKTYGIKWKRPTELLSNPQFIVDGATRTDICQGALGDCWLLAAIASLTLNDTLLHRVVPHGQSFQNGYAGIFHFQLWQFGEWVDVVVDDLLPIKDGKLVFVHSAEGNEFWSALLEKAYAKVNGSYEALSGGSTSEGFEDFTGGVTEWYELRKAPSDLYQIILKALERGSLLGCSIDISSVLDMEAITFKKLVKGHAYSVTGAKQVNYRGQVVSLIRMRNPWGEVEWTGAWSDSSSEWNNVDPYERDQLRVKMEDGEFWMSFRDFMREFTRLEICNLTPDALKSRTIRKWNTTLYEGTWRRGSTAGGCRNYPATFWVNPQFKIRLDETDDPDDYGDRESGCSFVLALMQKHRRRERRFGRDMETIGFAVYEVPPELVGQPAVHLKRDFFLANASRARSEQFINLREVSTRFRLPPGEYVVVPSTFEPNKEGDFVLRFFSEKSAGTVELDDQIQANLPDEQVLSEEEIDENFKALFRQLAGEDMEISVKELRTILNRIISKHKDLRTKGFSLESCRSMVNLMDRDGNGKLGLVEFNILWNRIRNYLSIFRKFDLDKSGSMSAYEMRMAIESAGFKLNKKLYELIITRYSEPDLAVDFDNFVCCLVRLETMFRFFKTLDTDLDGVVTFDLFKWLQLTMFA
# Description: To evaluate inhibitory activity, stock solutions (40 times concentrated) of exemplary compounds of the invention were prepared in 100% anhydrous DMSO and 5 μL of each inhibitor preparation were aliquoted into each of three wells of a 96-well plate. Recombinant human calpain I, prepared by the method of Meyer et al. (Biochem. […] To start the reaction, 20 μL of 50 mM CaCl2 in assay buffer was added to all wells of the plate, excepting three, which were used as background signal baseline controls. Substrate hydrolysis was monitored every 5 minutes for a total of 30 minutes. […] Inhibition of calpain I activity was calculated as the percent decrease in the rate of substrate hydrolysis in the presence of inhibitor (VI) relative to the rate in its absence (VO). Comparison between VO and VI was made within the linear range for substrate hydrolysis. For screening, compounds were tested at 10, 1.0, and 0.1 μM. […] The results were plotted as % inhibition versus log inhibitor concentration and the IC50 was calculated from linear regression of the data. Apparent second order rate constants were determined from analysis of reaction progress curves under pseudo-first order conditions. Each determination represents the means of three or more independent single cuvette analyses continually monitored via a Perkin-Elmer LS50B spectrofluorimeter. The rate of inhibition of hydrolysis was obtained by fitting the curve to the exponential equation (1): […]
# T1 sequence (P07711 114-288 limits assumed): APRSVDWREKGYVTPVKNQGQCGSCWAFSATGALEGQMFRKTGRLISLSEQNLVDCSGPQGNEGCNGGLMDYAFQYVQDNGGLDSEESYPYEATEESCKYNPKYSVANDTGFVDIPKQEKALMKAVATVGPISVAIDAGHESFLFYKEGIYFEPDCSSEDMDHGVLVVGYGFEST
# T1 sequence (P07711 292-333 limits assumed): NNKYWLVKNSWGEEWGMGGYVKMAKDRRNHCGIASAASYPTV
IC50 [1] [nM],inhibition at 0.1 µM [1] [%],"inhibition at 1 µM (cathepsin L; Table III, 1 uM) [%]","inhibition at 10 µM (thrombin; Table III, 10 uM) [%]","inhibition at 1 µM (cathepsin B; Table III, 1 uM) [%]","inhibition at 10 µM (α-chymotrypsin; Table III, 10 uM) [%]",IC50 (cathepsin B; Table III) [nM],Structure (SMILES),inhibition at 1 µM (cathepsin L) [%],inhibition at 10 µM (thrombin) [%],inhibition at 1 µM (cathepsin B) [%],inhibition at 10 µM (α-chymotrypsin) [%]
40,72,100,0,78,8,,CC(C)C[C@@H](NS(C)(=O)=O)C(=O)N[C@H](C=O)Cc1ccccc1 [Compound 86] (Ms-[dL]-Phe-aldehyde),,,,
15,82,97,0,100,4,,CS(=O)(=O)N[C@H](Cc1ccc(OCc2ccccc2)cc1)C(=O)N[C@H](C=O)Cc1ccccc1 [Compound 89] (Ms-[dY](Bn)-Phe-aldehyde),,,,
9,95,100,0,99,0,,CC(C)(C)OC(=O)NCCCC[C@@H](C=O)NC(=O)[C@@H](COCc1ccccc1)NS(C)(=O)=O [Compound 93],,,,
62,66,100,0,96,13,,CS(=O)(=O)N[C@@H](Cc1cccs1)C(=O)N[C@H](C=O)Cc1ccccc1 [Compound 99] (Ms-[2Thi]-Phe-aldehyde),,,,
53,84,100,0,46,2,,CS(=O)(=O)N1CCC[C@@H]1C(=O)N[C@H](C=O)Cc1ccccc1 [Compound 101] (Ms-[dP]-Phe-aldehyde),,,,
72,63,73,7,69,0,,O=C[C@H](Cc1ccccc1)NC(=O)[C@H]1CCCN1S(=O)(=O)Cc1ccccc1 [Compound 102],,,,
,9,71,0,45,10,,C[C@](Cc1ccccc1)(NS(C)(=O)=O)C(=O)NC(C=O)Cc1ccccc1 (some centres unmarked) [Compound 105] (Ms-[d(αMeF)]-[ξF]-aldehyde),,,,
40,59,98,0,70,0,,CS(=O)(=O)N[C@H](COCc1ccccc1)C(=O)N[C@H](C=O)Cc1ccccn1 [Compound 109] (Ms-[dS](Bn)-[2Pal]-aldehyde),,,,
,7,100,0,25,9,,O=C[C@H](Cc1ccccc1)NC(=O)[C@H]1C[C@@H](OS(=O)(=O)c2ccccc2)CN1S(=O)(=O)c1ccccc1 [Compound 112],,,,

# Second part, the compound before the results:
Structure (SMILES),IC50 [1] [nM],inhibition at 0.1 µM [1] [%],"inhibition at 1 µM (cathepsin L; Table III, 1 uM) [%]","inhibition at 10 µM (thrombin; Table III, 10 uM) [%]","inhibition at 1 µM (cathepsin B; Table III, 1 uM) [%]","inhibition at 10 µM (α-chymotrypsin; Table III, 10 uM) [%]",IC50 (cathepsin B; Table III) [nM],inhibition at 1 µM (cathepsin L) [%],inhibition at 10 µM (thrombin) [%],inhibition at 1 µM (cathepsin B) [%],inhibition at 10 µM (α-chymotrypsin) [%]
CC(C)C[C@@H](NC(=O)OCc1ccccc1)C(=O)N[C@H](C=O)Cc1ccccc1 [Compound 85] (Cbz-[dL]-Phe-aldehyde),110,44,,,,,,89,0,44,6
CC(C)C[C@@H](C=O)NC(=O)[C@@H](COCc1ccccc1)NS(C)(=O)=O [Compound 88] (Ms-[dS](Bn)-Leu-aldehyde),93,40,91,5,88,0,,,,,
CS(=O)(=O)N[C@H](COCc1ccccc1)C(=O)N[C@H](C=O)Cc1ccc(OCc2ccccc2)cc1 [Compound 90] (Ms-[dS](Bn)-Tyr(Bn)-aldehyde),5,99,99,0,100,0,,,,,
Cc1nn(C)c(Cl)c1S(=O)(=O)N[C@H](COCc1ccccc1)C(=O)N[C@H](C=O)Cc1ccccc1 [Compound 91],,30,100,0,68,53,,,,,
CS(=O)(=O)N[C@H](COCc1ccccc1)C(=O)N[C@H](C=O)CCCCNC(=O)OCc1ccccc1 [Compound 92],4,100,100,0,100,0,,,,,
O=C[C@H](Cc1ccccc1)NC(=O)[C@@H](COCc1ccccc1)N1C(=O)c2ccccc2C1=O [Compound 94],,14,93,0,0,1,,,,,
CS(=O)(=O)N[C@H](C(=O)N[C@H](C=O)Cc1ccccc1)c1cccs1 [Compound 97],37,79,100,4,89,25,,,,,
CS(=O)(=O)N[C@@H](C(=O)N[C@H](C=O)Cc1ccccc1)c1cccs1 [Compound 98],8,96,100,16,98,49,16,,,,
CS(=O)(=O)N[C@H](Cc1cccs1)C(=O)N[C@H](C=O)Cc1ccccc1 [Compound 100] (Ms-[d2Thi]-Phe-aldehyde),15,96,100,0,97,0,31,,,,
CC(=O)Nc1ccc(S(=O)(=O)N2CCC[C@@H]2C(=O)N[C@H](C=O)Cc2ccccc2)cc1 [Compound 103],71,37,56,3,40,26,,,,,
C[C@@H](NS(=O)(=O)c1ccccc1)C(=O)N[C@H](C=O)Cc1ccccc1 [Compound 104],93,45,97,7,86,6,,,,,
CS(=O)(=O)N[C@H](CSCc1ccccc1)C(=O)N[C@H](C=O)Cc1ccccc1 [Compound 106] (Ms-[dC](Bn)-Phe-aldehyde),8,95,100,7,92,16,,,,,
CC(C)CC(C)(C=O)NC(=O)[C@@H](COCc1ccccc1)NS(C)(=O)=O (some centres unmarked) [Compound 110] (Ms-[dS](Bn)-[ξαMeL]-aldehyde),,10,83,0,12,0,,,,,
CC(C)(C)[C@@H](C=O)NC(=O)[C@@H](COCc1ccccc1)NS(C)(=O)=O [Compound 111] (Ms-[dS](Bn)-[Tle]-aldehyde),,27,91,0,10,16,,,,,

# Reference: patent publication US5852007A, “Cysteine and serine protease inhibitors containing D-amino acid at the P2 position, methods of making same, and methods of using same” (priority 1997, dated 1998)
